Experimental data as given in patent US7151096.
Like-named read-outs stand apart in the source and are kept apart here.

For c1cc2cc(c1)OCCCNc1ncccc1-c1ccnc(n1)N2, the ring closure, yield of all isomers (from Oc1cccc(Nc2nccc(-c3cccnc3NCCCBr)n2)c1, ether bond, K2CO3, acetone, 19.3 mM, 56.0 °C, 6.0 h, 3 steps) was 34.6%.

O=C1Cc2cccc(c2)Nc2nccc(n2)-c2ccnc(c2)NCCCN1 showed a ring closure, yield of all isomers (from NCCCNc1cc(-c2ccnc(Nc3cccc(CC(=O)O)c3)n2)ccn1, amide bond, HATU, DMF, 1.52 mM, 0.0 °C, 3.0 h) of 74.2%.

c1cc2cc(c1)OCCCNc1cc(ccn1)-c1ccnc(n1)N2 showed a ring closure, yield of all isomers (from Oc1cccc(Nc2nccc(-c3ccnc(NCCCBr)c3)n2)c1, ether bond, K2CO3, acetone, 6.5 mM, 56.0 °C, 3.0 h, 2 steps) of 26.5%.
